Reference: the supplement of paper PMC13380429
± gives the standard deviation of the averaged measurements.

How the values were obtained:
Settings in all cases: 72 h
[1] = tested on: Caco-2; experiment: cell viability relative to DMSO; higher = less toxic
[2] = tested on: Calu-3; experiment: as above
[3] = tested on: HepG2; experiment: as above
[4] = tested on: U2OS; experiment: as above
[5] = tested on: Vero E6; experiment: as above
[6] = tested on: Caco-2; experiment: relative viability EC50 (midpoint between 100% and the lowest measured viability); higher = less toxic
[7] = tested on: Calu-3; experiment: as above
[8] = tested on: HepG2; experiment: as above
[9] = tested on: U2OS; experiment: as above
[10] = tested on: Vero E6; experiment: as above
[11] = tested on: Caco-2; experiment: drug sensitivity score (DSS) for viability; higher = more toxic; extreme values may be limits of the assay
[12] = tested on: Calu-3; experiment: as above
[13] = tested on: HepG2; experiment: as above
[14] = tested on: U2OS; experiment: as above
[15] = tested on: Vero E6; experiment: as above

| Structure (SMILES) | cell viability ([1]; 1 nM) | cell viability ([1]; 10 nM) | cell viability ([1]; 100 nM) | cell viability ([1]; 1000 nM) | cell viability ([1]; 10000 nM) | cell viability ([2]; 1 nM) | cell viability ([2]; 10 nM) | cell viability ([2]; 100 nM) | cell viability ([2]; 1000 nM) | cell viability ([2]; 10000 nM) | cell viability ([3]; 1 nM) | cell viability ([3]; 10 nM) | cell viability ([3]; 100 nM) | cell viability ([3]; 1000 nM) | cell viability ([3]; 10000 nM) | cell viability ([4]; 1 nM) | cell viability ([4]; 10 nM) | cell viability ([4]; 100 nM) | cell viability ([4]; 1000 nM) | cell viability ([4]; 10000 nM) | cell viability ([5]; 1 nM) | cell viability ([5]; 10 nM) | cell viability ([5]; 100 nM) | cell viability ([5]; 1000 nM) | cell viability ([5]; 10000 nM) | relative viability EC50 [6] | relative viability EC50 [7] | relative viability EC50 [8] | relative viability EC50 [9] | relative viability EC50 [10] | drug sensitivity score [11] | drug sensitivity score [12] | drug sensitivity score [13] | drug sensitivity score [14] | drug sensitivity score [15] |
| --- | --- | --- | --- | --- | --- | --- | --- | --- | --- | --- | --- | --- | --- | --- | --- | --- | --- | --- | --- | --- | --- | --- | --- | --- | --- | --- | --- | --- | --- | --- | --- | --- | --- | --- | --- |
| COc1ccc(CC(C)NCC(O)c2ccc(O)c(NC=O)c2)cc1 (stereo not given) [formoterol] | 96% | 90.2% | 93.4% | 100% | 98.5% | 99.3% | 101% | 101% | 88.1% | 92.4% | 101% | 89.4% | 98.5% | 93.7% | 105% | 95.5% | 102% | 97.2% | 105% | 97.8% | 93.9% | 91.5% | 97.2% | 95.3% | 104% | > 10 µM | > 10 µM | > 10 µM | > 10 µM | > 10 µM | 0 | 0.5 | 0 | 0 | 0 |
| CCN(CCNC(=O)Nc1ccccc1Br)c1cccc(C)c1 | 92.4% | 102% | 93.1% | 102% | 90.5% | 93.6% | 96.3% | 93.7% | 91.3% | 101% | 95.1% | 101% | 90.8% | 99.6% | 96.5% | 98.9% | 103% | 97% | 99.5% | 93.5% | 108% | 114% | 105% | 120% | 97.8% | > 10 µM | > 10 µM | > 10 µM | > 10 µM | > 10 µM | 0 | 0 | 0 | 0 | 0 |
| COc1cc(OC)cc(-c2ccc3c(-c4ccc(F)cc4)n[nH]c3n2)c1 [APcK-110] | 94.5% | 98.3% | 97.6% | 96.3% | 99.9% | 99.5% | 110% | 104% | 103% | 97.3% | 99.8% | 90.1% | 101% | 98.1% | 107% | 93.5% | 99.5% | 97.9% | 99.9% | 103% | 99.1% | 89.9% | 97.1% | 93.3% | 108% | > 10 µM | > 10 µM | > 10 µM | > 10 µM | > 10 µM | 0 | 0 | 0 | 0 | 0 |
| CC#CCOC(=O)c1c(C)nc2sc3c(c2c1N)CCC(O)C3 (stereo not given) | 97.3% | 91.4% | 101% | 92.3% | 90.2% | 113% | 93.6% | 102% | 101% | 97.4% | 100% | 94.8% | 89.9% | 106% | 91.4% | 100% | 94.6% | 103% | 93.8% | 95.9% | 91.6% | 97% | 88.6% | 93.2% | 98.9% | > 10 µM | > 10 µM | > 10 µM | > 10 µM | > 10 µM | 0 | 0 | 0 | 0 | 0 |
| CC(C)Oc1cccc(CC(=O)N2CCC[C@](CC[N+]34CCC(c5ccccc5)(CC3)CC4)(c3ccc(Cl)c(Cl)c3)C2)c1 | 102% | 99.7% | 100% | 97.9% | 91.8% | 87.6% | 98.1% | 91.1% | 92.5% | 99.1% | 110% | 84.1% | 104% | 91% | 95.7% | 96.8% | 99.4% | 96.8% | 99.3% | 98.8% | 101% | 98.2% | 100% | 95.8% | 97% | > 10 µM | > 10 µM | > 10 µM | > 10 µM | > 10 µM | 0 | 0 | 0 | 0 | 0 |
| CC(C)NCC(O)c1cc(O)cc(O)c1 (stereo not given) [metaproterenol] | 93.4% | 90.8% | 104% | 106% | 95.1% | 101% | 97.2% | 106% | 108% | 98% | 98.6% | 110% | 108% | 108% | 108% | 98.3% | 96.8% | 98.9% | 98.7% | 102% | 94.4% | 95.6% | 92.7% | 94.7% | 113% | > 10 µM | > 10 µM | > 10 µM | > 10 µM | > 10 µM | 0 | 0 | 0 | 0 | 0 |
| CC[C@@]1(O)C(=O)OCc2c1cc1n(c2=O)Cc2cc3ccccc3nc2-1 [camptothecin] | 100% | 87.6% | 56.4% | 9.4% | 25.5% | 97.9% | 88.4% | 59.8% | 40.4% | 14.2% | 87.8% | 63.4% | 36.7% | 6% | 1.4% | 95.8% | 101% | 86.5% | 52% | 3.7% | 94.9% | 96.4% | 68.7% | 37.4% | 4% | 0.0939 µM | 0.159 µM | 0.027 µM | 0.891 µM | 0.324 µM | 21.3 | 17.1 | 28.8 | 11.3 | 15.9 |
| CO/N=C(\C(=O)N[C@@H]1C(=O)N2C(C(=O)[O-])=C(C[N+]3(C)CCCC3)CS[C@H]12)c1csc(N)n1 [cefepime] | 90.8% | 96.8% | 106% | 102% | 122% | 104% | 105% | 113% | 92.8% | 102% | 102% | 86% | 121% | 82.6% | 102% | 99.2% | 101% | 96.6% | 102% | 99.4% | 100% | 101% | 104% | 107% | 99.3% | > 10 µM | > 10 µM | > 10 µM | > 10 µM | > 10 µM | 0 | 0 | 0 | 0 | 0 |
| CCC1(CC)C(=O)C=CNC1=O [pyrithyldione] | 100% | 93.1% | 93.4% | 92.3% | 102% | 93.1% | 94.1% | 99.5% | 99.9% | 96.7% | 91% | 92% | 94.9% | 104% | 95.1% | 98.2% | 95% | 97.8% | 95.1% | 96.6% | 93.5% | 107% | 97.5% | 102% | 93.6% | > 10 µM | > 10 µM | > 10 µM | > 10 µM | > 10 µM | 0 | 0 | 0 | 0 | 0 |
| C[C@H]1O[C@@H](Oc2c(-c3cc(O)c(O)c(O)c3)oc3cc(O)cc(O)c3c2=O)[C@@H](O)[C@@H](O)[C@@H]1O [myricitrin] | 100% | 105% | 100% | 105% | 96% | 92.5% | 99.2% | 96.7% | 101% | 94.4% | 104% | 98.3% | 109% | 86.6% | 99.6% | 97.9% | 97.4% | 94.7% | 99.1% | 94.7% | 99.5% | 98.5% | 97.7% | 96.1% | 93.8% | > 10 µM | > 10 µM | > 10 µM | > 10 µM | > 10 µM | 0 | 0 | 0 | 0 | 0 |
| CCC(CC)(NC(=O)C(C)C)C(=O)N[C@@H](CCCNC(=N)N)C(=O)NC1(C(=O)NC(c2ccc(F)cc2)c2ccc(F)cc2)CCCC1 [MM-102] | 99% | 93.9% | 101% | 94.6% | 102% | 98.1% | 85.4% | 92.5% | 97.8% | 97.8% | 100% | 96.8% | 98.4% | 105% | 114% | 97.8% | 94.9% | 101% | 95.8% | 99.2% | 94.2% | 101% | 97.3% | 99.5% | 106% | > 10 µM | > 10 µM | > 10 µM | > 10 µM | > 10 µM | 0 | 0 | 0 | 0 | 0 |
| CO[C@@]1(NC(=O)CSC[C@@H](N)C(=O)O)C(=O)N2C(C(=O)O)=C(CSc3nnnn3C)CS[C@@H]21 [cefminox] | 106% | 103% | 91.5% | 103% | 98.5% | 116% | 99.8% | 105% | 94.5% | 122% | 108% | 116% | 96.6% | 98.1% | 92.1% | 96.6% | 98.8% | 102% | 104% | 101% | 93.7% | 103% | 99.3% | 104% | 97.8% | > 10 µM | > 10 µM | > 10 µM | > 10 µM | > 10 µM | 0 | 0 | 0 | 0 | 0 |
| CCCCOc1nc(N)c2c(n1)N(Cc1cccc(CN3CCCC3)c1)CC(=O)N2 [GS-9620] | 96.3% | 104% | 91.4% | 98.5% | 98.3% | 101% | 95.1% | 111% | 96.1% | 104% | 105% | 102% | 95.9% | 100% | 99.1% | 100% | 96.5% | 96.8% | 95.6% | 101% | 108% | 96.3% | 101% | 103% | 98.8% | > 10 µM | > 10 µM | > 10 µM | > 10 µM | > 10 µM | 0 | 0 | 0 | 0 | 0 |
| OCC(O)CN1CCN(c2ccccc2)CC1 (stereo not given) [dropropizine] | 89.7 ± 5% | 85.2 ± 12% | 97.8 ± 2.9% | 91.9 ± 0.57% | 96.3 ± 9.9% | 106 ± 1.6% | 97.85 ± 0.64% | 104 ± 4.5% | 99.6 ± 1.3% | 97.85 ± 0.21% | 94.8 ± 4.6% | 101 ± 4.9% | 102 ± 1.6% | 99.5 ± 3.2% | 88.9 ± 5.2% | 99.9 ± 5% | 97.3 ± 4.9% | 100.5 ± 0.49% | 97.7 ± 0.14% | 102.8 ± 0.35% | 96.6 ± 7.5% | 95.8 ± 1.5% | 94.2 ± 8.5% | 96.7 ± 6.7% | 103 ± 8.4% | > 10 µM | > 10 µM | > 10 µM | > 10 µM | > 10 µM | 0 | 0 | 0.1 ± 0.14 | 0 | 0 |
